Measurements taken from patent US20050020567A1, “Method of treating bacterial infections using gemifloxacin or a salt thereof and a carbapenem antibacterial agent” (priority 2002, published 2005).
Like-named read-outs stand apart in the source and are kept apart here. One block for each compound: values may come before it.

Columns and labels:
Type in all cases: cell-based, Pseudomonas aeruginosa
[1] = system: P. aeruginosa PA018R; assay: checkerboard titration, gemifloxacin and imipenem (MIC, FIC); settings: for MIC: Pseudomonas aeruginosa, alone
Experimental: (§1) The combined effect of gemifloxacin and imipenem was investigated in P. aeruginosa by using a checkerboard titration method. The test organisms used in this study were all clinical isolates collected in Korea. The isolates were maintained frozen at −70° C. prior to testing.
(§2) Gemifloxacin was tested at 12 concentrations (0.016-32 μg/ml) and imipenem was tested at 11 concentrations (0.016-16 μg/ml). Gemifloxacin was dispensed alone in the first row and combined with imipenem in the remaining rows. Imipenem solution was also dispensed alone in the first row in the first column. Test strains were grown for 18 h in Mueller-Hinton Broth, and then these overnight cultures were diluted with the same fresh medium to the density of approximately 10^7 CFU/mL. The bacterial concentrations were determined by measuring optical density or turbidity of the suspension and were verified by standard colony counts on antibiotic-free agar plates. A diluted bacterial solution was applied to plates containing serially diluted antimicrobial agents to yield 5×10^5 CFU/mL. Plates were incubated at 35° C. for 18 hours.
(§3) Minimal inhibitory concentrations (MICs) for each separate drug were determined. For wells along the growth-no growth interface, synergy was determined by calculating the Fractional Inhibitory Concentration (FIC) index. The Fractional Inhibitory Concentration (FIC) indices were calculated using the following formula: FIC index=FICA+FICB=[A]/MICA+[B]/MICB Wherein: • FICA(or B), is the FIC of drug A (or B) • MICA (or B) is the MIC of the organism to drug A (or B) • A (or B) is concentration of drug A (or B) that is the lowest inhibitory concentration
(§4) The FIC indices were interpreted using the following criteria: • ≦0.5=Synergy; • >0.5-1.0=Additive; • >1.0-4.0=Indifference; • >4.0=Antagonism

[2] = system: P. aeruginosa 6140; assay: as above; settings: for MIC: Pseudomonas aeruginosa, alone
Experimental: as §1, §2, §3, §4

[3] = system: P. aeruginosa 6168; assay: as above; settings: for MIC: Pseudomonas aeruginosa, alone
Experimental: as §1, §2, §3, §4

[4] = system: P. aeruginosa ATCC 27853; assay: checkerboard titration, gemifloxacin and meropenem (MIC, FIC); settings: for MIC: Pseudomonas aeruginosa
Experimental: Evaluation for synergistic activity was carried out by calculation of fractional inhibitory concentrations (FICs) according to the method of Eliopoulos et al (1996, Antimicrobial Combinations, Antibiotics in Laboratory Medicine, Victor Lorian, 4th Edition, pp 337-338, Baltimore, Md., Williams and Wilkins).
P. aeruginosa ATCC 27853 was obtained from the SmithKline Beecham Anti-Infectives Research Culture Collection and stored at −80° C. in 10% glycerol. Before testing, the isolate was passaged onto agar plates (trypticase soy agar containing 5% sheeps blood) from the frozen stock for two consecutive days. Cation adjusted Mueller Hinton broth (BBL, Cockeyville, Md.) was used for the isolate.
Checkerboard microtitre broth dilution plates were prepared using the Hamilton MicroLab AT Plus system (Reno, Nev.). Two-fold serial dilutions (50 μl) of meropenem were made in columns 1 through 11 of a microtitre plate. Two-fold serial dilutions of gemifloxicin were prepared manually and the MicroLab AT Plus was used to dispense 25 μl of gemifloxacin at each concentration into rows A through G of the microtitre plate. The concentration range tested varied for each drug/organism combination to encompass the MIC endpoints of the individual components. Column 12 contained two fold serial dilutions of gemifloxacin only, and row H contained two fold serial dilutions of meropenem only. The last well (H) in column 12 was used as a positive growth control well, containing only medium and test isolate.
The bacteria were diluted to a 0.5 McFarland standard and then further diluted 1/50. Each well was inoculated with 25 μl of the isolate to give a final inoculum density of approximately 5×10^5 cfu/ml. The MicroLab AT Plus 2 was used to add the inoculum to the microtitre plates. After inoculation, the plates were covered with a 96 well microtitre plate lid and incubated at 35° C. in ambient air for 20-24 hours. A 10 μl aliquot of the inoculum was plated on trypticase soy agar containing 5% sheep blood to determine the purity of the final test inoculum.
Following incubation, a microtitre mirror reader (Cooke Instruments Ltd., England) was used to assist in determining the microdilution MIC endpoints. The MIC was determined as the lowest concentration of compound that inhibited visible growth of the organism.
The Fractional Inhibitory Concentrations (FICs) were calculated using the following formula: (A)/(MIC A)+(B)/(MIC B)=FIC A+FIC B=FIC Index wherein: • A is the MIC of drug A in the presence of drug B • B is the MIC of drug B in the presence of drug A • MIC A is the MIC of the organism to drug A alone • MIC B is the MIC of the organism to drug B alone • FIC A is the fractional inhibitory concentration of drug A • FIC B is the fractional inhibitory concentration of drug B

[5] = gemifloxacin in combination with imipenem
[6] = imipenem in combination with gemifloxacin

- MIC ([1]; read-out: gemifloxacin MIC): 4 µg/mL
- Cgemifloxacin MIC [1, 5]: 1 µg/mL
- MIC ([2]; read-out: gemifloxacin MIC): 8 µg/mL
- Cgemifloxacin MIC [2, 5]: 2 µg/mL
- MIC ([3]; read-out: gemifloxacin MIC): 0.5 µg/mL
- Cgemifloxacin MIC [3, 5]: 0.0625 µg/mL
- MIC ([4]; ATCC27853, in the presence of meropenem 0.125 μg/ml, read-out: gemifloxacin MIC): 0.125 µg/mL
- gemifloxacin MIC ([4]; gemifloxacin alone): 0.5 µg/mL
SMILES: CO/N=C1\CN(c2nc3c(cc2F)c(=O)c(C(=O)O)cn3C2CC2)CC1CN (racemic) [gemifloxacin, (R,S)-7-(3-aminomethyl-4-methoxyiminopyrrolidin-1-yl)-1-cyclopropyl-6-fluoro-4-oxo-1,4-dihydro-1,8-naphthyridine-3-carboxylic acid]
- FICA ([1]; FIC of gemifloxacin): 0.25
- FICA ([2]; FIC of gemifloxacin): 0.25
- FICA ([3]; FIC of gemifloxacin): 0.13

- MIC ([1]; read-out: imipenem MIC): 16 µg/mL
- Cimipenem MIC [1, 6]: 1 µg/mL
- MIC ([2]; read-out: imipenem MIC): 4 µg/mL
- Cimipenem MIC [2, 6]: 1 µg/mL
- MIC ([3]; read-out: imipenem MIC): 1 µg/mL
- Cimipenem MIC [3, 6]: 0.25 µg/mL
SMILES: C[C@@H](O)[C@H]1C(=O)N2C(C(=O)O)=C(SCCN=CN)C[C@H]12 [imipenem]
- FICB ([1]; FIC of imipenem): 0.06
- FICB ([2]; FIC of imipenem): 0.25
- FICB ([3]; FIC of imipenem): 0.25

- MIC ([4]; ATCC27853, in the presence of gemifloxacin 0.125 μg/ml, read-out: meropenem MIC): 0.125 µg/mL
- meropenem MIC ([4]; meropenem alone): 0.5 µg/mL
SMILES: C[C@@H](O)[C@H]1C(=O)N2C(C(=O)O)=C(S[C@@H]3CN[C@H](C(=O)N(C)C)C3)[C@H](C)[C@H]12 [meropenem]
